Molecules are shown by their SMILES.

Drawing on patent US10118894B2, “Isoindolinone derivatives useful as antiviral agents” (priority 2014, dated 2018), this text covers IC50 for 7 compounds.

The subject of this test is HIV. Nature of the test: MT4 Assay (anti-HIV activity). It is filed as cell-based. The following applies: Human immunodeficiency virus 1, MT4, 96 h, read-out: HIV MT4 Assay IC50. On the procedure: Antiviral HIV activity and cytotoxicity values for compounds of the invention from Table 1 were measured in parallel in the HTLV-1 transformed cell line MT-4 based on the method previously described (Hazen et al., 2007, In vitro antiviral activity of the novel, tyrosyl-based human immunodeficiency virus (HIV) type 1 protease inhibitor brecanavir (GW640385) in combination with other antiretrovirals and against a panel of protease inhibitor-resistant HIV (Hazen et al., “In vitro antiviral activity of the novel, tyrosyl-based human immunodeficiency virus (HIV) type 1 protease inhibitor brecanavir (GW640385) in combination with other antiretrovirals and against a panel of protease inhibitor-resistant HIV”, Antimicrob. Agents Chemother. 2007, 51: 3147-3154; and Pauwels et al., “Sensitive and rapid assay on MT-4 cells for the detection of antiviral compounds against the AIDS virus”, J. of Virological Methods 1987, 16: 171-185).
Luciferase activity was measured 96 hours later by adding a cell titer glo (Promega, Madison, Wis.). Percent inhibition of cell protection data was plotted relative to no compound control. Under the same condition, cytotoxicity of the compounds was determined using cell titer Glo™ (Promega, Madison, Wis.). IC50s were determined from a 10 point dose response curve using 3-4-fold serial dilution for each compound, which spans a concentration range >1000 fold.
These values are plotted against the molar compound concentrations using the standard four parameter logistic equation: y=((Vmax*x^n)/(K^n+x^n))+Y2

Consider `Cc1ccc(-c2c(C)c3c(c(C)c2[C@H](OC(C)(C)C)C(=O)O)C(=O)N(Cc2ccccc2)C3)cc1` [Example 2], for which the IC50 turned out to be 42 nM. In the case of `Cc1c2c(c(C)c(C(OC(C)(C)C)C(=O)O)c1-c1ccc3c(c1)CCCO3)C(=O)N(Cc1ccccc1)C2` (stereo not shown) [Example 4, 2-(2-benzyl-6-(chroman-6-yl)-4,7-dimethyl-3-oxoisoindolin-5-yl)-2-(tert-butoxy)acetic acid], the IC50 was 52 nM. In the case of `Cc1ccc(-c2c(C)c3c(c(C)c2C(OC(C)(C)C)C(=O)O)C(=O)N(Cc2ccccc2)C3)cc1` (stereo not shown) [Example 1, 2-(2-Benzyl-4,7-dimethyl-3-oxo-6-(p-tolyl)isoindolin-5-yl)-2-(tert-butoxy)acetic acid], the 50% inhibitory concentration (IC50) stood at 25 nM. With `Cc1c(-c2c(C)c3c(c(C)c2[C@H](OC(C)(C)C)C(=O)O)C(=O)N(Cc2ccccc2)C3)cc(F)c2c1CCCO2` (atropisomer, axis not shown; (M)) [Example 5, (S)-2-((M)-2-Benzyl-6-(8-fluoro-5-methylchroman-6-yl)-4,7-dimethyl-3-oxoisoindolin-5-yl)-2-(tert-butoxy)acetic acid], the IC50 is 5 nM. `Cc1c2c(c(C)c(C(OC(C)(C)C)C(=O)O)c1-c1ccc(Cl)cc1)C(=O)N(Cc1ccccc1)C2` (stereo not shown) [Example 3, 2-(2-benzyl-6-(4-chlorophenyl)-4,7-dimethyl-3-oxoisoindolin-5-yl)-2-(tert-butoxy)acetic acid]: the IC50 amounted to 86 nM.

On to `Cc1c2c(c(C)c([C@H](OC(C)(C)C)C(=O)O)c1C1=CCC(C)(C)CC1)C(=O)N(Cc1ccccc1)C2` [Example 6, (S)-2-(2-benzyl-6-(4,4-dimethylcyclohex-1-en-1-yl)-4,7-dimethyl-3-oxoisoindolin-5-yl)-2-(tert-butoxy)acetic acid], for which the IC50 came to 36 nM. Under `Cc1c(-c2c(C)c3c(c(C)c2[C@H](OC(C)(C)C)C(=O)O)C(=O)N(Cc2ccccc2)C3)cc(F)c2c1NCCO2` (atropisomer, axis not shown; (M)) [Example 7, (S)-2-((M)-2-benzyl-6-(8-fluoro-5-methyl-3,4-dihydro-2H-benzo[b][1,4]oxazin-6-yl)-4,7-dimethyl-3-oxoisoindolin-5-yl)-2-(tert-butoxy)acetic acid] stands 14 nM.
